{"source": "patent US8653304B2", "about": "“2,3-dihydro-1H-indene-2-yl urea derivative and pharmaceutical application of same” (Toray Industries, Inc., priority 2009, dated 2014)", "key": {"TNFα production": {"system": "TNFα production", "experiment": "Cytokine production suppressing activity using human whole blood (LPS stimulation)", "format": "cell-based", "conditions": "LPS 200 ng/mL, 37° C., 5 hours", "experimental": "Using human whole blood, the inhibitory action of Compound (I) on the TNFα production by LPS stimulation was studied by a method partially modified from the method described in Journal of Medicinal Chemistry (2003, Vol. 46, pp. 4676-4686).\nA solution of each test compound in 100% DMSO and human blood were mixed in a 96-well flat-bottom plate. Thereafter, LPS (Final Concentration: 200 ng/mL) was added, and the resulting mixture was allowed to react at 37° C. for 5 hours (the final concentration of DMSO was 0.2%). After the reaction, the resultant was centrifuged for 20 minutes at room temperature, and the supernatant was collected. For the measurement of the TNFα amount in the supernatant, a human cytokine kit (CIS bio international) was used. As a comparative control compound, Comparative Compound 2 was used."}, "[1]": {"system": "skin swelling response in type IV allergic dermatitis model", "experiment": "Skin swelling response in type IV allergic dermatitis model", "format": "in vivo", "conditions": "BALB/c mouse, 24 hours after induction", "experimental": "The action of Compound (I) on skin swelling response in mouse allergic dermatitis models was studied. As the allergic dermatitis models, models partially modified from a type I allergic dermatitis model and a type IV allergic dermatitis model described in documents (Inflamm. Res., 1998, Vol. 47, pp. 506-511 and Int. Arch. Allergy. Appl. Immunol., 1990, Vol. 92, pp. 356-360) were used.\nTo the back of each BALB/c mouse (female, 7-week old, Charles River Laboratories Japan, Inc.), 25 μL of 0.5% DNFB solution dissolved in acetone:olive oil (4:1) was applied. On the next day, the same operations were repeated to actively sensitize the mouse. Four days after the sensitization, 20 μL of 0.2% DNFB solution dissolved in acetone:olive oil (4:1) was applied to the auricle of the sensitized mouse to induce inflammation. Twenty four hours after the induction, the thickness of the auricle was measured using a Digimatic Indicator (Mitutoyo). Each test compound was dissolved in ethanol and 20 μL of 0.5 w/v % solution was applied to the auricle at 1 hour before the induction; or each test compound was suspended in 0.5% methylcellulose (Wako Pure Chemical Industries, Ltd.) and the resulting solution was orally administered at 30 mg/kg at 1 hour before the induction. The swelling ratio of the auricle was calculated according to the following equation: Auricular Swelling Ratio(%)=(A−B)/B×100"}, "[2]": {"system": "colonic disorders in TNBS-induced colitis model", "experiment": "Colonic disorders in TNBS-induced colitis model", "format": "in vivo", "conditions": "Wistar rat, oral 3 mg/kg once on TNBS day then twice a day for 4 days, colon 5 days after TNBS", "source_text": "The action of Compound (I) on colonic disorders in inflammatory bowel disease models was studied. As the inflammatory bowel disease models, models partially modified from a TNBS-induced colitis model and a DSS-induced chronic colitis model described in documents (Gastroenterology, 1989, Vol. 96, pp. 29-36 and Am. J. Physiol. Gastrointest. Liver Physiol., 2004, Vol. 287, pp. G115-124) were used.\nTo each Slc:Wistar rat (male, 12-week old, Japan SLC, Inc.), TNBS (Wako Pure Chemical Industries, Ltd.) dissolved in ethanol was rectally administered under anesthesia, and the TNBS solution was held in the rectum for 1 hour to produce the colitis model. These rats had been fasted from 2 days before the TNBS administration to the day of the TNBS administration. Five days after the TNBS administration, the colon was isolated from the each rat, and the macroscopic damage score (which is a total of adhesion score, diarrhea score and ulcer score) was recorded as an index of damage in the colon. The macroscopic damage score was calculated based on the scores of Dubigeon et al. (Eur. J. Pharmacol., 2001, Vol. 431, pp. 103-110) and the scores of Venkova et al. (J. Pharmacol. Exp. Ther., 2004, Vol. 308, pp. 206-213). […]"}, "[3]": {"system": "hyperalgesia in carrageenin paw edema pain model", "experiment": "Hyperalgesia in inflammatory pain model (carrageenin paw edema pain model)", "format": "in vivo", "conditions": "SD rat, oral 100 mg/kg 30 minutes before carrageenin, measured 90 minutes after carrageenin; FIG. 1", "source_text": "(§1) The action of Compound (I) on hyperalgesia in pain models was studied. As the pain models, models partially modified from an inflammatory pain model (a carrageenin paw edema pain model) and neuropathic pain models (Bennett model and Chung model) described in documents (Anesth. Analg., 2009, Vol. 108, pp. 1680-1687; Pain, 1988, Vol. 33, pp. 87-107; and Pain, 1992, Vol. 50, pp. 355-363) were used.\nTo the footpad of the left hind limb of each Crl:CD (SD) rat (male, 6-week old, Charles River Laboratories Japan, Inc.), an 1 w/v % suspension of carrageenin (Zushi Kagaku Laboratory, Inc.) in physiological saline was subcutaneously administered at 0.1 mL/body to produce the carrageenin paw edema pain model. Ninety minutes after the administration of the 1 w/v % suspension of carrageenin in physiological saline, the pain threshold (mmHg) of the footpad of the left hind limb was measured using Analgesy Meter (TK-201, Unicom) wherein the stimulating pressure was set so as to rise from 0 mmHg to 100 mmHg for 10 seconds. Each test compound was suspended in 0.5 w/v % methylcellulose (Wako Pure Chemical Industries, Ltd.), and the obtained solution was orally administered 30 minutes before the administration of the 1 w/v % suspension of carrageenin in physiological saline. […]"}, "[4]": {"system": "hyperalgesia in Bennett model", "experiment": "Hyperalgesia in neuropathic pain model (Bennett model), plantar test", "format": "in vivo", "conditions": "SD rat, Bennett model day 14, oral 100 mg/kg, 90 minutes after administration; FIG. 2", "source_text": "as §1\nThe Bennett model was produced by lightly ligating the sciatic nerve in the left thigh of each Crl:CD (SD) rat (male, 6-week old, Charles River Laboratories Japan, Inc.) at 4 points with chromic catgut (4-0). Fourteen days after the Bennett model was produced, each test compound was orally administered, and plantar test was performed 90 minutes after the administration. The plantar test was carried out by measuring the pain threshold (sec) of the left footpad (model foot) using a plantar thermal stimulation device (Plantar test 7370, Ugo Basile) wherein the thermal stimulus intensity was set to 60. Each test compound was suspended in 0.5 w/v % methylcellulose (Wako Pure Chemical Industries, Ltd.) and the obtained solution was orally administered. Compound 46b described in the Examples was administered at a dose of 100 mg/kg, and gabapentin (Toronto Research Chemicals), which is an anticonvulsant, was administered as a comparative control agent at a dose of 100 mg/kg."}}, "data": [{"compound": "COc1c(NC(=O)N[C@@H]2Cc3ccccc3[C@@H]2O)cc(C(C)(C)C)cc1[C@@H](O)C(F)(F)F", "note": "[Compound 46b, 1-(5-tert-butyl-2-methoxy-3-((R)-2,2,2-trifluoro-1-hydroxyethyl)phenyl)-3-((1S,2R)-1-hydroxy-2,3-dihydro-1H-indene-2-yl)urea]", "values": [{"measurement": "IC50", "setting": "TNFα production", "value": 508, "unit": "nM"}, {"measurement": "suppression ratio of auricular swelling, oral administration", "setting": "[1]; 30 mg/kg oral 1 hour before induction", "value": 37.7, "unit": "%"}, {"measurement": "suppression ratio of auricular swelling, auricular application", "setting": "[1]; 20 μL of 0.5 w/v % solution on auricle 1 hour before induction", "value": 49.2, "unit": "%"}, {"measurement": "macroscopic damage score", "setting": "[2]", "value": "3.3±0.7"}, {"measurement": "pain threshold (mmHg) compared to solvent-administered group", "setting": "[3]", "value": "significantly elevated"}, {"measurement": "pain threshold (sec), plantar test, compared to solvent-administered group", "setting": "[4]", "value": "significantly elevated"}]}]}
